Measurements reported in patent US20170209444A1, “METHODS OF TREATING CANCER AND PREVENTING CANCER DRUG RESISTANCE” (Genentech, Inc., priority 2014, published 2017).
“Also recorded” adds a separate entry of the source.

Key:
G9aK185me3 = assay: G9a auto-methylation (FIG. 3B); format: cell-based
Protocol: Cell lysates were prepared in Laemmli sample buffer and analyzed by immunoblotting as described previously.

H3K9 methylation [1] = assay: H3K9 methylation in Colo205 cells (FIG. 11A); format: cell-based; conditions: human colon cancer cell line Colo205
Protocol: (§1) Generally, for G9a inhibitor experiments cells were treated with active compound at 0.1, 0.2, 0.5 and/or 1 uM of the G9a inhibitor, UNC0638, for 3-5 days prior to chemotherapy treatment and were maintained on drug for the duration of the study.
(§2) Cell lysates were prepared in Laemmli sample buffer and analyzed by immunoblotting as described previously. Cell lystates were analyzed using commercial antibodies against modifications on H3 (Abcam, Active Motif, and Cell Signaling Technologies).

H3K9 methylation [2] = assay: H3K9 methylation in EVSA-T cells (FIG. 8A); format: cell-based; conditions: human breast cancer cell line EVSA-T
Protocol: as §1, §2

SKBR3 parental cells = assay: Viability of SKBR3 parental cells; format: cell-based, human; conditions: shown concentrations; FIG. 9B
Protocol: (§3) 2×10^5 cells were plated in each well of a 6-well cluster dish. 24 hours after plating, media was removed and replaced with media containing drugs. Fresh media was replaced every 2 days until untreated cells reached confluence. Media was then removed, cells were washed with Phosphate Buffered Saline (PBS), and then fixed for 15 min with 4% formaldehyde in PBS. Cells were then washed with PBS and stained with the fluorescent nucleic acid stain, Syto60 ([…] in PBS; Molecular Probes) for 15 min. Dye was removed, cell monolayers were washed with PBS, and fluorescence quantitation was carried out at 700 nm with an Odyssey Infrared Imager (Li-Cor Biosciences). In some setting, RFP nuc red cells were used rather than Syto60.
as §1

M14 parental cells = assay: Viability of M14 parental cells; format: cell-based, human; conditions: shown concentrations; FIG. 10B
Protocol: as §3, §1

H3K9 methylation [3] = assay: H3K9 methylation Western blot in PC9 cells (FIG. 6A); format: cell-based, human
Protocol: as §1, §2

EVSA-T DTPs = assay: EVSA-T DTP formation, GDC-0980; format: cell-based, human; conditions: DTPs upon treatment with GDC-0980; FIG. 8B
Protocol: as §3
(§4) Drug-sensitive cells were treated with relevant drug as described herein at concentrations exceeding 100 times the established IC50 values, for three rounds, with each treatment lasting 72 hours. […]
(§5) Specifically for Tarceva, GDC-0980, GDC-0973, AZ628, and Lapatinib DTPs, cells were plated and grown to 60-70% confluency then treated with Tarceva (0.1, 0.2, 0.5, and/or 1 uM), GDC-0980 (2 uM), GDC-0973 (1 uM), AZ628 (2 uM) and Lapatinib (1 uM). DTPs were collected and analyzed 1 week after the final dose of chemotherapy. […]

H3K9 methylation [4] = assay: H3K9 methylation in M14 cells (FIG. 10A); format: cell-based; conditions: human melanoma cell line M14
Protocol: as §1, §2

EVSA-T parental cells = assay: Viability of EVSA-T parental cells; format: cell-based, human; conditions: shown concentrations; FIG. 8B
Protocol: as §3, §1

Colo205 DTPs = assay: Colo205 DTP formation, AZ628; format: cell-based, human; conditions: DTPs upon treatment with AZ628; FIG. 11B
Protocol: as §3, §4, §5

PC9 DTPs = assay: PC9 drug tolerant persister (DTP) formation/viability, Tarceva; format: cell-based, human
Protocol: as §3, §4, §5

H3K9me2 levels = conditions: Vedadi et al. 2011; Sweis et al. 2014; cited from earlier work
SKBR3 DTPs = assay: SKBR3 DTP formation, Lapatinib; format: cell-based, human; conditions: DTPs upon treatment with Lapatinib; FIG. 9B
Protocol: as §3, §4, §5

Colo205 parental cells = assay: Viability of Colo205 parental cells; format: cell-based, human; conditions: shown concentrations; FIG. 11B
Protocol: as §3, §1

M14 DTPs = assay: M14 DTP formation, GDC0973; format: cell-based, human; conditions: DTPs upon treatment with GDC0973; FIG. 10B
Protocol: as §3, §4, §5

methylation of H3K9 = assay: H3K9 methylation by Western blotting and mass spectrometry (FIG. 3A); format: cell-based
Protocol: as §1, §2
Samples with 10 million cells were lysed and histones were isolated from cell lysates using the Active Motif Histone Purification Kit (world wide web activemotif.com/catalog/171.html). Protein quantitation post-isolation was performed using the Qubit fluorescence platform (Invitrogen). The target yield was at least 20 μg or greater of purified histone per 5 million cells. The samples were then derivatized and binary comparisons using d0/d10 propionic anhydride and trypsin digestion was conducted. […]
Peptide digests were analyzed by nano LC/MS/MS in data-dependent mode on a LTQ Orbitrap Velos tandem mass spectrometer. […] Trypsin-digested propionylated samples were quantitated within each LC/MS run by comparing d0/d5 pairs (according to the work of Garcia et al., JPR, 8, 5367-5374 (2009)). Alternate enzyme samples were quantitated label-free between LC/MS runs.

H3K9 methylation [5] = assay: H3K9 methylation in SKBR3 cells (FIG. 9A); format: cell-based; conditions: human breast adenocarcinoma cell line SKBR3
Protocol: as §1, §2

parental PC9 cells = assay: Viability of parental PC9 cells; format: cell-based, human; conditions: shown concentrations; FIG. 6B
Protocol: as §3, §1

## COc1cc2c(NC3CCN(C(C)C)CC3)nc(C3CCCCC3)nc2cc1OCCCN1CCCC1 [UNC0638]
G9aK185me3
  inhibition of auto-methylation G9aK185me3: inhibits auto-methylation G9aK185me3
H3K9 methylation [1]
  H3K9 methylation (me1, me2, me3): reduces H3K9 methylation (e.g., me1, me2, and me3) in a dose dependent manner
H3K9 methylation [2]
  H3K9 methylation (me1, me2, me3): reduces H3K9 methylation (e.g., me1, me2, and me3) in a dose dependent manner
SKBR3 parental cells
  viability of the SKBR3 parental cells: do not affect the viability of the SKBR3 parental cells
M14 parental cells
  viability of the M14 parental cells: do not affect the viability of the M14 parental cells
H3K9 methylation [3]
  H3K9 methylation (me1, me2, me3): reduced methylation of H3K9; also recorded: reduces H3K9 methylation (e.g., me1, me2, and me3) in a dose dependent manner
EVSA-T DTPs
  number of EVSA-T DTPs formed after pre-treatment: dose dependent reduction in the number of EVSA-T DTPs formed
H3K9 methylation [4]
  H3K9 methylation (me1, me2, me3): reduces H3K9 methylation (e.g., me1, me2, and me3) in a dose dependent manner
EVSA-T parental cells
  viability of the EVSA-T parental cells: do not affect the viability of the EVSA-T parental cells
Colo205 DTPs
  number of Colo205 DTPs formed after pre-treatment: dose dependent reduction in the number of Colo205 DTPs formed
PC9 DTPs; Tarceva, FIGS. 5 and 7
  viability/number of PC9 DTPs generated via treatment with Tarceva: reduces the number of the non-small cell lung cancer cell line, PC9, DTPs; also recorded: reduced the viability of PC9 DTPs
PC9 DTPs; varying doses of UNC0638 pre-treatment, FIG. 6B
  number of DTPs formed after pre-treatment: reducing the number of PC9 DTPs; also recorded: dose dependent reduction in the number of DTPs formed
H3K9me2 levels
  H3K9me2 levels: reduces H3K9me2 levels in a concentration dependent manner
SKBR3 DTPs
  number of SKBR3 DTPs formed after pre-treatment: dose dependent reduction in the number of SKBR3 DTPs formed
Colo205 parental cells
  viability of the Colo205 parental cells: do not affect the viability of the Colo205 parental cells
M14 DTPs
  number of M14 DTPs formed after pre-treatment: dose dependent reduction in the number of M14 DTPs formed
Methylation of H3K9
  inhibition of methylation of H3K9: capable of inhibiting methylation of H3K9
H3K9 methylation [5]
  H3K9 methylation (me1, me2, me3): reduces H3K9 methylation (e.g., me1, me2, and me3) in a dose dependent manner
Parental PC9 cells
  viability of the parental PC9 cells: do not affect the viability of the parental PC9 cells
